Common to all, as to type: cell-based
For one data set, the system named is apolipoprotein B protein. As to the kind of experiment: Apolipoprotein B protein secreted from primary Cynomolgous monkey hepatocytes, ELISA. The note with it: primary Cynomolgous hepatocytes. As to the method: Apolipoprotein B protein secreted from primary Cynomolgous hepatocytes treated with 150 and 300 nM of oligonucleotide was measured by ELISA using an apolipoprotein B protein specific kit (ALerCHEK Inc., Portland, Me.). Each result represents the average of 3 experiments.
Apolipoprotein B protein secreted primary Cynomolgous hepatocytes treated with 50 and 150 nM of ISIS 315089 and ISIS 281625 was measured by ELISA using an apolipoprotein B protein specific kit (ALerCHEK Inc., Portland, Me.). Each result represents the average of 3 experiments.
Apolipoprotein B protein secreted from primary Cynomolgous hepatocytes treated with 50 and 150 nM of ISIS 271009 and ISIS 301027 was measured by ELISA using an apolipoprotein B protein specific kit (ALerCHEK Inc., Portland, Me.). Each result represents the average of 3 experiments.
(ELISA stands for enzyme-linked immunosorbent assay.)

Data set [1] relates to human apolipoprotein(a) mRNA. As to the kind of experiment: Apolipoprotein(a) mRNA expression in primary human hepatocytes, real-time PCR. To be noted: primary human hepatocytes, 24 hours. The procedure:
Primary human hepatocytes (InVitro Technologies, Baltimore, Md.), cultured and transfected as described herein, were treated with 5, 10, 50 or 150 nM of ISIS 271009 (SEQ ID NO: 319), 281625 (SEQ ID NO: 224), 301012 (SEQ ID NO: 247) or 301027 (SEQ ID NO: 262). Cells were also treated with 50 or 150 nM of the control oligonucleotides ISIS 113529 (SEQ ID NO: 859) or ISIS 13650 (SEQ ID NO: 806). Untreated cells served as a control. Following 24 hours of oligonucleotide treatment, apolipoprotein(a) mRNA expression was measured by quantitative real-time PCR as described in other examples herein.
Probes and primers to human apolipoprotein(a) were designed to hybridize to a human apolipoprotein(a) sequence, using published sequence information (GenBank accession number NM_005577.1, incorporated herein as SEQ ID NO: 860). For human apolipoprotein(a) the PCR primers were: […]
forward primer: […] (SEQ ID NO: 861)
reverse primer: TGCGTCTGAGCATTGCGT (SEQ ID NO: 862) and the PCR probe was: FAM-[…]-TAMRA (SEQ ID NO: 863) where FAM is the fluorescent dye and TAMRA is the quencher dye.
Data are the average of three experiments and are expressed as percent inhibition relative to untreated controls.
In general terms: In qPCR the cycle at which signal appears reflects the starting amount.

For data set [2], the system named is Cynomolgous monkey apolipoprotein B mRNA. As to the kind of experiment: Apolipoprotein B mRNA in primary Cynomolgous monkey hepatocytes, real-time PCR. The note with it: primary Cynomolgous monkey hepatocytes, 24 hours (Table 46). As to the method:
Antisense inhibition by ISIS 301012 was compared to that of ISIS 326358, which is a perfect match to the Cynomolgous monkey apolipoprotein B sequence to which ISIS 301012 hybridizes. The compounds were analyzed for their effect on Cynomolgous monkey apolipoprotein B mRNA levels in primary Cynomolgous monkey hepatocytes purchased from In Vitro Technologies ([…].). Pre-plated primary Cynonomolgous monkey hepatocytes were purchased from InVitro Technologies (Baltimore, Md.). Cells were cultured in high-glucose DMEM (Invitrogen Corporation, Carlsbad, Calif.) supplemented with 10% fetal bovine serum (Invitrogen Corporation, Carlsbad, Calif.), 100 units/mL and 100 μg/mL streptomycin (Invitrogen Corporation, Carlsbad, Calif.).
Primary Cynomolgous monkey hepatocytes were treated with 10, 50, 150 or 300 nM of antisense oligonucleotides for 48 hours. ISIS 113529 (SEQ ID NO: 859) was used as a control oligonucleotide. Untreated cells also served as a control. Cynomolgous monkey apolipoprotein B mRNA levels were quantitated by real-time PCR using the human apolipoprotein B and GAPDH primers and probes described by other examples herein. The results, shown in Table 44, are the average of 6 experiments and are expressed as percent inhibition of apolipoprotein B mRNA normalized to untreated control cells.
In a further embodiment of the invention, antisense inhibition by ISIS 281625 was compared to that by ISIS 315089, which is a perfect match to the Cynomolgous monkey apolipoprotein B sequence to which ISIS 281625 hybridizes. Primary Cynomolgous monkey hepatocytes, cultured as described herein, were treated with 10, 50, 150 or 300 nM of ISIS 315089 or ISIS 281625 for 24 hours. Cells were treated with the control oligonucleotide ISIS 13650 (SEQ ID NO: 806) at 150 and 300 nM or ISIS 113529 (SEQ ID NO: 859) at 300 nM. Untreated cells also served as a control. Cynomolgous monkey apolipoprotein B mRNA levels in primary Cynomolgous monkey hepatocytes was quantitated using real-time PCR with human primers and probe as described by other examples herein. The results, shown in Table 46, are the average of 3 experiments and are expressed as percent inhibition of apolipoprotein B mRNA normalized to untreated control cells.
ISIS 271009 (SEQ ID NO: 319) and ISIS 301027 (SEQ ID NO: 262) were also tested for their effects on apolipoprotein B mRNA and protein expression in Cynomolgous primary hepatoctyes. Cells, cultured as described herein, were treated with 10, 50 and 150 nM of ISIS 271009 or ISIS 301027 for 24 hours. Cells were treated with the control oligonucleotide ISIS 113529 (SEQ ID NO: 859) at 150 nM. Untreated cells also served as a control. Cynomolgous monkey apolipoprotein B mRNA levels in primary Cynomolgous monkey hepatocytes was quantitated using real-time PCR with human primers and probe as described by other examples herein. The results, shown in Table 48, are the average of 2 experiments and are expressed as percent inhibition of apolipoprotein B mRNA normalized to untreated control cells.

Another data set relates to lipoprotein(a). As to the kind of experiment: Lipoprotein(a) particle secretion from primary human hepatocytes, ELISA. The note with it: 150 nM, 24 hours. The procedure:
Primary human hepatocytes (InVitro Technologies, Baltimore, Md.), cultured and transfected as described herein, were treated for 24 hours with 50 or 150 nM of ISIS 271009 (SEQ ID NO: 319), 281625 (SEQ ID NO: 224), 301012 (SEQ ID NO: 247) or 301027 (SEQ ID NO: 262). Cells were also treated with 150 nM of the control oligonucleotides ISIS 113529 (SEQ ID NO: 859) or ISIS 13650 (SEQ ID NO: 806). Untreated cells served as a control. Following 24 hours of oligonucleotide treatment, the amount of lipoprotein(a) in the culture medium collected from the treated cells was measured using a commercially available ELISA kit (ALerCHEK Inc., Portland, Me.). The results are the average of three experiments and are expressed as percent change in lipoprotein(a) secretion relative to untreated controls.

Consider “13650 (TCCCGCCTGTGACATGCATT; listed as DNA, chemistry not given here) [compound 13650]”, for which the “% Reduction of monkey apolipoprotein B protein secretion” value in the data set on apolipoprotein B protein (50 nM (Table 47)) is recorded as 16%; with apolipoprotein B protein (150 nM (Table 47)), 13%; with apolipoprotein B protein (150 nM (Table 49), "+" = secretion increased) it was “+1%”. Besides, the “% Change in apolipoprotein(a) mRNA expression following antisense inhibition of apolipoprotein B” value in data set [1] (50 nM) is listed as −68%; in data set [1] (150 nM) it was −37%. The “% Inhibition of apolipoprotein B mRNA” value in data set [2] (150 nM, "+" = expression increased) is reported as “+50%”; in data set [2] (300 nM), 33%. Moreover, the “% Change in lipoprotein(a) secretion” value in the data set with lipoprotein(a) is recorded as “+14%”.
